Experimental data as given in PMC10974579, “A Monocarbonyl Curcuminoid Derivative Inhibits the Activity of Human Glutathione Transferase A4-4 and Chemosensitizes Glioblastoma Cells to Temozolomide” (Pharmaceuticals, 2024).
Where two headings read alike, the source gives them in different places.

How the values were obtained:
hGSTA4-4 = target: T1, hGSTA4-4 (Homo sapiens, UniProt O15217); experiment: hGSTA4-4 enzyme inhibition assay (CDNB-GSH conjugation, 340 nm); conditions: for inhibition at 100 µM: read-out: Enzyme Inhibition (%), hGSTA4-4, compound at 100 μM, mean of three experiments; for Enzyme Inhibition (%): hGSTA4-4, compound at 100 μM, mean of three experiments, 100 µM
T1 sequence (O15217 1-222): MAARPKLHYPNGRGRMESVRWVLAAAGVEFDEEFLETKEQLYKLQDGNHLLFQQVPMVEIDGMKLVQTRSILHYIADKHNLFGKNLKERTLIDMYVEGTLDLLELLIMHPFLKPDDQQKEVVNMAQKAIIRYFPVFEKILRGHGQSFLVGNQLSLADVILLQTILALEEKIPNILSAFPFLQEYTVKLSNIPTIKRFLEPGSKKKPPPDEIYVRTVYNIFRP
Experimental: hGSTA4-4 activity was determined by monitoring (at 25 °C) the formation of the conjugate between CDNB and GSH at 340 nm (ε = 9600 L·mol^−1·cm^−1) for 120 s, as previously described [58]. One unit of enzyme activity is defined as the amount of enzyme that produces 1.0 μmol of product per minute under the assay conditions. The tested natural products and monocarbonyl curcumin derivatives were dissolved in DMSO (100 μΜ) and added to the assay mixture (the volume of DMSO was maintained at a 2% v/v final concentration). Initial velocities were determined in triplicates and were corrected for spontaneous reaction rates, when necessary. […] The IC50 values were determined from a graph of the remaining enzyme activity (%) against inhibitor concentration. The computer program GraphPad Prism version 8 (GraphPad Prism Software, Inc., Boston, MA, USA) was used for producing kinetic graphs and determining apparent kinetic parameters/constants and IC50 values.

U-251 MG cells [1] = experiment: TMZ sensitization experiment, MTT assay, U-251 MG; type: cell-based, human
Experimental: Cell cultures were maintained in flasks and grown at 37 °C in a humidified atmosphere of 5% CO2. […] Cells were seeded in 96-well plates (8 × 10^3 cells/well in 100 μL culture medium) and grown overnight at 37 °C in a 5% CO2 incubator. Exponentially growing cells were incubated for 48 h with various concentrations ranging between 10^−3 and 10^−8 M of each compound. The final DMSO concentration never exceeded 0.2%. The medium was then removed and replaced with 100 μL MTT solution (1 mg/mL). After 4 h incubation, the solution was aspirated, formazan crystals were solubilized in 100 μL DMSO, and the absorbance was recorded at 540 nm (Tecan well plate reader). The same procedure was followed for the TMZ sensitization experiments. […] Data were analyzed using the GraphPad Prism 5.0 software.

U-87 MG cells [2] = conditions: cited from earlier work
[3] = In vitro cytotoxicity, MTT assay, U-251 MG; type: cell-based, human; conditions: human, U-251 MG cells, pH 7.4, U-251 MG cells
Experimental: (§1) U-251 and U-87 MG cells were grown in Dulbecco’s modified Eagle’s growth medium (pH 7.4) supplemented with 10% FBS, 100 U/mL penicillin, 2 mM glutamine, and 100 μg/mL streptomycin. Cell cultures were maintained in flasks and grown at 37 °C in a humidified atmosphere of 5% CO2. Subconfluent cells were detached using 0.05% (w/v) trypsin−0.25% (w/v) ethylenediaminetetraacetic acid solution at a subcultivation ratio of 1:2 to 1:5. […] Cells were seeded in 96-well plates (8 × 10^3 cells/well in 100 μL culture medium) and grown overnight at 37 °C in a 5% CO2 incubator. Exponentially growing cells were incubated for 48 h with various concentrations ranging between 10^−3 and 10^−8 M of each compound. The final DMSO concentration never exceeded 0.2%. The medium was then removed and replaced with 100 μL MTT solution (1 mg/mL). After 4 h incubation, the solution was aspirated, formazan crystals were solubilized in 100 μL DMSO, and the absorbance was recorded at 540 nm (Tecan well plate reader). The same procedure was followed for the TMZ sensitization experiments. […] Data were analyzed using the GraphPad Prism 5.0 software.

U-251 MG cells [4] = experiment: In vitro cytotoxicity, MTT assay, U-251 MG; type: cell-based, human; conditions: 48 h
Experimental: as §1

[5] = In vitro cytotoxicity, MTT assay, U-87 MG; type: cell-based, human; conditions: human, U-87 MG cells, pH 7.4, U-87 MG cells
Experimental: as §1

U-87 MG cells [6] = experiment: In vitro cytotoxicity, MTT assay, U-87 MG; type: cell-based, human; conditions: 48 h
Experimental: as §1

hGSTP1-1 = target: hGSTP1-1; design: method as in PMID 36670925; conditions: cited from earlier work; for Ki: read-out: inhibition constant Ki

| SMILES | inhibition at 100 µM (hGSTA4-4) | Enzyme Inhibition (%) (hGSTA4-4) | further results |
| --- | --- | --- | --- |
| O=C(O)/C=C/c1ccc(O)cc1 [Coumaric Acid] | 27.3% |  |  |
| O=C1c2c(O)cc(O)cc2O[C@H](c2ccc(O)c(O)c2)[C@H]1O [Taxifolin hydrate] | 40% | 40.37% |  |
| OC[C@H]1O[C@@H](Oc2cc(O)cc(/C=C/c3ccc(O)cc3)c2)[C@H](O)[C@@H](O)[C@@H]1O [Polydatin] | 32.3% |  |  |
| COc1cc2c(c(OC)c1OC)-c1ccc(OC)c(=O)cc1[C@@H](NC(C)=O)CC2 [Colchicine] | 17% | 17.1% |  |
| Oc1ccc(/C=C/c2cc(O)cc(O)c2)cc1 [Resveratrol] | 8.9% | 8.87% |  |
| O=C(O)c1cc(O)c(O)c(O)c1 [Gallic acid] | 20.8% |  |  |
| O=c1c(O)c(-c2ccc(O)c(O)c2)oc2cc(O)cc(O)c12 [Quercetin] | 84.7% |  |  |
| Cn1nnc2c(C(N)=O)ncn2c1=O [TMZ, temozolomide] |  |  | cell survival (U-251 MG cells [1]; 48 h, TMZ alone at 150 μM): > 85%; IC50 (U-87 MG cells [2]; 48 h, interquartile range, read-out: IQR of IC50): 92 to 590 µM; IC50 (U-87 MG cells [2]; 48 h, read-out: median IC50): 223 µM |
| COc1cc(/C=C/C(=O)/C=C/c2ccc(O)c(OC)c2)ccc1O [DM101] | > 90% | 94.1% | IC50 (hGSTA4-4): 12.7 ± 1.1 µM |
| O=C(O[C@@H]1Cc2c(O)cc(O)cc2O[C@@H]1c1cc(O)c(O)c(O)c1)c1cc(O)c(O)c(O)c1 [Epigallocatechin gallate] | 86.4% |  |  |
| O=c1oc2c(O)c(O)cc3c(=O)oc4c(O)c(O)cc1c4c23 [Ellagic acid, Ellagic Acid] | 95% | 95.1% | IC50 (U-87 MG cells [2]; 48 h treatment, read-out: IC50 (cytotoxicity)): 91.2 µM; IC50 (hGSTA4-4): 0.44 ± 0.01 µM |
| O=C1C[C@@H](c2ccc(O)cc2)Oc2cc(O)cc(O)c21 [Naringenin] | 28.5% |  |  |
| O=C1/C(=C/c2ccc(O)c(O)c2)CCC/C1=C\c1ccc(O)c(O)c1 [DM151] |  |  | IC50 at 48 h [3]: 25.5 µM; IC50 (U-251 MG cells [4]): 25.6 ± 4.83 µM; IC50 at 48 h [5]: 18.9 µM; IC50 (U-87 MG cells [6]): 18.9 ± 5.81 µM; cell survival in combination with TMZ (U-251 MG cells [1]; 3 h pretreatment with compound 10 μM, then TMZ 150 μM 48 h): 45%; cell survival in combination with TMZ (U-251 MG cells [1]; 6 h pretreatment with compound 10 μM, then TMZ 150 μM 48 h): approximately 35%; cell survival (U-251 MG cells [1]; 48 h, compound alone at 10 μM): > 85%; cell survival in combination with TMZ (U-251 MG cells [1]; compound 10 μM + TMZ 150 μM added together, 48 h): 55%; Ki (hGSTP1-1; hGSTP1-1, CDNB substrate): 9.55 µM; type of inhibition (hGSTP1-1; hGSTP1-1, both GSH and CDNB substrates): purely non-competitive; Ki (hGSTP1-1; hGSTP1-1, variable substrate GSH): 5.79 µM |
| COc1cc(/C=C/C(=O)CC(=O)/C=C/c2ccc(O)c(OC)c2)ccc1O [Curcumin] | 80.9% |  |  |
| CC1=C(C=O)C(C)(C)CC=C1 [Safranal] | 21.8% |  |  |
| O=C(/C=C/c1ccc(O)c(O)c1)/C=C/c1ccc(O)c(O)c1 [DM148] | 4.6% |  | IC50 at 48 h [3]: 89.2 µM; IC50 (U-251 MG cells [4]): 89.2 ± 3.41 µM; IC50 at 48 h [5]: 91.1 µM; IC50 (U-87 MG cells [6]): 91.1 ± 5.64 µM; cell survival (U-251 MG cells [1]; 48 h, compound alone at 10 μM): > 85%; change of cell survival in combination with TMZ (U-251 MG cells [1]; compound 10 μM + TMZ 150 μM, added together or 3 or 6 h pre-incubation, 48 h): did not result in any dramatic changes |

Now from value to molecule, other results behind:

| inhibition at 100 µM (hGSTA4-4) | Enzyme Inhibition (%) (hGSTA4-4) | SMILES | further results |
| --- | --- | --- | --- |
| 73.9% |  | O=C(/C=C/c1ccc(F)cc1)/C=C/c1ccc(F)cc1 [DM109] |  |
| > 90% | 81.8% | O=C(/C=C/c1ccc(O)cc1)/C=C/c1ccc(O)cc1 [DM96] |  |
| 55.7% |  | COc1ccc(/C=C2\CCC/C(=C\c3ccc(OC)c(OC)c3)C2=O)cc1OC [DM57] |  |
| 54.8% |  | COc1ccc(/C=C/C(=O)/C=C/c2ccc(OC)c(OC)c2)cc1OC [DM95] |  |
| 74.9% |  | O=C1/C(=C/c2ccc(F)cc2)CCC/C1=C\c1ccc(F)cc1 [DM62] |  |
| 64.9% |  | COc1ccc(/C=C2\CCC/C(=C\c3ccc(OC)cc3)C2=O)cc1 [DM46] |  |
| > 90% | 95.1% | COc1cc(/C=C2\CCC/C(=C\c3ccc(O)c(OC)c3)C2=O)ccc1O [DM100] | IC50 (hGSTA4-4): 16.9 ± 0.4 µM |
